# Experimental data published in US20190070396A1 (priority 2017, published 2019).
# Where two headings read alike, the source gives them in different places.
# How the values were obtained:
# [1] = Beagle, dog, in vivo
# in vivo = settings: dog
# [2] = dog, in vivo, 0.8 mg
SMILES,buccal increase over basal level as share of the increase demonstrated by benchmark intramuscular injection [1],AUC (in vivo; 0.8 mg) [ng·h/mL],Cmax (in vivo; 0.8 mg) [ng/mL],AUC (in vivo; 8 mg) [ng·h/mL],Cmax (in vivo; 8 mg) [ng/mL],Tmax (in vivo; 8 mg) [min],"AUC (in vivo; im, 0.4 mg) [ng·h/mL]","Cmax (in vivo; im, 0.4 mg) [ng/mL]","Tmax (in vivo; im, 0.4 mg) [min]",Tmax [2] [min]
CNC[C@H](O)c1ccc(O)c(O)c1 [epinephrine],approximately 20%,,,,,,,,,
C=CCN1CC[C@]23c4c5ccc(O)c4O[C@H]2C(=O)CC[C@@]3(O)[C@H]1C5 [naloxone],,8.33,25,58.3,52,18,10,9,22,15
